Data reported in patent US8883841B2, “Oncogenic ras-specific cytotoxic compound and methods of use thereof” (The Board of Regents of the University of Texas System, priority 2005, dated 2014).

Tests used:
Raf-1 mRNA = test: RT-PCR analysis of Raf-1 mRNA in H460 cells; format: cell-based, human
Procedure: FIGS. 10A-10D Effect of Oncrasin-1 on Raf-1 expression. (FIG. 10A) H460 cells were treated with various concentrations of Oncrasin-1 and harvested 24 h later for Western blot analysis. (FIG. 10B) Reverse transcriptase-based polymerase chain reaction (RT-PCR) assay. H460 cells treated with 1 μM Oncrasin-1 for various times or at various concentrations for 24 h, as indicated. (+, −, positive and negative controls). […] (FIG. 10D) Dose effects of Oncrasin-1 on stable cell lines transfected with Raf-1 plasmids. Parental H460 cells and H460 cells transfected with wild-type Raf-1 (Raf-1), constitutive Raf-1 (Raf-1C), or dominant-negative Raf-1 Raf-1/DN) were treated with various concentrations of Oncrasin-1, and cell viability was determined by SRB assay.
Suppression of Raf-1 expression by Oncrasin-1. […] To elucidate the roles of Raf-1 in Oncrasin-induced apoptosis, the inventors evaluated the expression of Raf-1 in H460 cells after treatment with different concentrations of Oncrasin-1. […] Because Raf-1 executes anti-apoptosis function via a variety of pathways. […] However, the resistance to Oncrasin-1 was more prominent in the constitutively active Raf-1-transfected cells than in cells with the wild-type Raf-1 (FIG. 10C and FIG. 10D).

ASF/SF2 = test: Antibody staining, subcellular localization of ASF/SF2; format: cell-based, human
From the text: (§1) Effects on RNA spliceosome. To investigate the nature of this PKCiota aggregates in the nucleus, the effect of Oncrasin-1 on SC35, a protein required for RNA splicing and assembly of spliceosome (Fu et al., 1992; Vellard et al., 1992), and on Rad51, a homologous DNA recombinase that involves in DNA repair (Benson et al., 1994; Baumann et al., 1996) were studied. […] and DNA repairing are the two important functions executed in the nucleus. In untreated or DMSO-treated cells, SC35 was localized in nucleus as speckles, either diffusely distributed or concentrated as granule clusters (Mistele et al., 1997), whereas Rad51 was more uniformly distributed inside the nucleus. […] This aggregation of SC35 was not observed in Oncrasin resistant T29 cells upon the treatment with Oncrasin-1. […] The effects of Oncrasin on another spliceosome protein, alternative splicing factor/splicing factor 2 (ASF/SF2), was studied (Krainer et al., 1991). […] In the resistant T29 cells, however, such an aggregation is not observed (FIG. 8C).

[1] = system: RNA transcription (HeLa cell nuclear extracts); test: In vitro transcription assay with HeLa nuclear extracts; format: biochemical
Procedure: FIGS. 16A and 16B Effect on RNA processing machinary. (FIG. 16A) T29, T29Kt1, and H460 cells were treated with 10 μM Oncrasin-1 (T29 and T29Kt1) or 1 μM Oncrasin-1 (H460). Twelve hours later, cells were harvested for Western blot analysis for phosphorylation of RNA polymerase II and SR proteins. Cells treated with DMSO were used as control (C). (T) cells treated with Oncrasin-1. Arrows indicate reduced phosphorylation of the polymerase II (pPolII) and SR proteins (pSR) (FIG. 16B) In vitro transcription assay with HeLa cell nuclear extracts (Promoega). The assay was performed following manufacturers instructions. The concentrations used are indicated on the top of the panel. DRB was used as positive control for transcription inhibition.
To further test the role of RNA transcription and splicing in Oncrasin-mediated antitumor activity the phosphorylation of the largest subunit of RNA polymerase II and splicing factors were analyzed. T29, T29Kt1 and H460 cells were treated with Oncrasin-1 at an optimal concentration, around IC60 to IC80 for T29Kt1 and H460 cells. Cell lysates were collected 12 h after the treatment and subjected to Western blot analysis with antibodies specific for phosphorylated RNA polymerase If (H5, Covance Research Products, Inc., Berkeley, Calif.) and SR proteins (1H4, Zymed, obtained from Invitrogen, Carlsbad, Calif.).

SC35 = test: Antibody staining, subcellular localization of SC35 (spliceosome); format: cell-based, human
From the text: as §1

PKCiota = test: Immunohistochemical staining, subcellular localization of PKCiota; format: cell-based, human
Procedure: Effects on subcellular localization of PKCiota. […] To further investigate molecular mechanisms of Oncrasin action the inventors studied the subcellular localization of several molecules involved in Ras-signaling pathway because the functions of Ras and other proteins are directly related to their subcellular localizations. For this purpose, T29Kt1 or H460 cells were seeded on cover glass slides and treated with DMSO or Oncrasin-1 for 12 h. Cells were then fixed with paraformaldehyde, permeabilized with Triton X-100 and stained with various antibodies for immunohistochemical examination. […] Nevertheless, substantial subcellular localization change was detected for PKCiota after Oncrasin-1 treatment (FIG. 6). In both H460 and T29Kt1 cells, both PKCiota and PKCzeta were diffusely distributed in cells with high concentration on cell membrane in nucleus, consisting with previous reports that aPKC contains both nuclear localization signal (NLS) and nuclear export signal (NES), and can shuttle between cytoplasm and nucleus, which was regulated by intramolecular conformational changes, phosphorylation or by treatment with growth factors (Perander et al., 2001; White et al., 2002; Neri et al., 1999). […] Such aggregation of PKCiota was not observed in Oncrasin-resistant T29 and H1299 cells. The inventors then tested whether PKCiota aggregation in the nucleus can be induced by other chemotherapeutic agents such as 5-fluorouracil (5-FU) and paclitaxol.

SMILES: O=Cc1cn(Cc2ccc(Cl)cc2)c2ccccc12 [Oncrasin K001, 1H-Indole-3-carboxaldehyde, 1-[(4-chlorophenyl)methyl]-(9CI)]
- Raf-1 mRNA level (Raf-1 mRNA): decreased in a dose- and time-dependent fashion
- ASF/SF2 localization, T29Kt1 cells (ASF/SF2): induced ASF/SF2 aggregation inside nucleus
- ASF/SF2 aggregation, T29 cells (ASF/SF2; resistant cells): not observed
- in vitro RNA transcription [1]: does not inhibit in vitro RNA transcription directly
- SC35 localization, T29Kt1 cells (SC35): aggregation of SC35 into several large foci
- SC35 aggregation, T29 cells (SC35; Oncrasin resistant cells): not observed
- PKCiota aggregation in the nucleus, H460 cells (PKCiota; 12 h): aggregation of PKCiota into large foci in nucleus
- PKCiota aggregation in the nucleus, T29Kt1 cells (PKCiota; 12 h, comparators at doses giving similar cell killing): aggregation of PKCiota into large foci in nucleus
- PKCiota aggregation, T29 and H1299 cells (PKCiota; Oncrasin-resistant cells): not observed
